Source: US11597704B2, “2,4-diaminoquinazoline derivatives and medical uses thereof” (Janssen Sciences Ireland Unlimited Company, priority 2018, dated 2023)

Experiments:
human TLR8 = target: T1, human TLR8 (Homo sapiens, UniProt Q9NR97); assay: TLR8 NFκB-luc cellular reporter assay in transiently transfected HEK293 cells; format: cell-based; settings: lowest effective concentration; HEK293 cells transfected with wild type TLR8 and NFκB-luc reporter, 6 h incubation
T1 construct: expressed in transfected cells; host or cells: HEK293
T1 sequence (Q9NR97 27-1041): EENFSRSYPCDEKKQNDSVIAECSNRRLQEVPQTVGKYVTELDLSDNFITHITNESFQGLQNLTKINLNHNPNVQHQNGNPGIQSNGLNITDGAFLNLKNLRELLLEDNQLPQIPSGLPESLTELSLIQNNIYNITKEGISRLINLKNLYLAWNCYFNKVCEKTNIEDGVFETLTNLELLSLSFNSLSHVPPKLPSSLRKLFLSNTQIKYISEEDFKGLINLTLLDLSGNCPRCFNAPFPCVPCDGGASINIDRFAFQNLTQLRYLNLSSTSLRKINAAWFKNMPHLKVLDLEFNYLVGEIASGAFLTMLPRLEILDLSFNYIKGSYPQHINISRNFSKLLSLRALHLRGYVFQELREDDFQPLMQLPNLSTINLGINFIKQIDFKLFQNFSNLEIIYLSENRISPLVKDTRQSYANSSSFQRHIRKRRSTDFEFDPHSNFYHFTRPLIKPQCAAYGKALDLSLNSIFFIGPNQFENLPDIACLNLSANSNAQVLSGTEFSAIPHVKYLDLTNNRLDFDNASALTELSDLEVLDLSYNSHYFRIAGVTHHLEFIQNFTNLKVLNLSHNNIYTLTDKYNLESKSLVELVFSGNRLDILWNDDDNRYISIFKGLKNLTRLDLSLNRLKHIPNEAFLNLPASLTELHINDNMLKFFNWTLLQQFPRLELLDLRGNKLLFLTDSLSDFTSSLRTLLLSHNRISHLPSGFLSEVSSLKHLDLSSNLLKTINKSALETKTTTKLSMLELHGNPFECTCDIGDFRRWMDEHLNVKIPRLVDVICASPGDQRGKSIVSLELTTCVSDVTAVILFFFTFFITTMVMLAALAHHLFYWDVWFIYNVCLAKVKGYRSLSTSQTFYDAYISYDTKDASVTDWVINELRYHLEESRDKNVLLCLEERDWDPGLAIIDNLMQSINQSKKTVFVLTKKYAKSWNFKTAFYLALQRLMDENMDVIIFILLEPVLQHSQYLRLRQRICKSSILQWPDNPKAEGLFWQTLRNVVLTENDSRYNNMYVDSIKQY
Experimental: (§1) The ability of compounds to activate human TLR7 and/or TLR8 was assessed in a cellular reporter assay using HEK293 cells transiently transfected with a TLR7 or TLR8 expression vector and NFκB-luc reporter construct. In one instance, the TLR expression construct expresses the respective wild type sequence or a mutant sequence comprising a deletion in the second leucine-rich repeat of the TLR.
(§2) HEK293 cells were grown in culture medium (DMEM supplemented with 10% FCS and 2 mM Glutamine). For transfection of cells in 10 cm dishes, cells were detached with Trypsin-EDTA, transfected with a mix of CMV-TLR7 or TLR8 plasmid (750 ng), NFκB-luc plasmid (375 ng) and a transfection reagent and incubated 24 h at 37° C. in a humidified 5% C02 atmosphere. Transfected cells were then detached with Trypsin-EDTA, washed in PBS and re-suspended in medium to a density of 1.67×10^5 cells/mL. Thirty microliters of cells were then dispensed into each well in 384-well plates, where 10 μL of compound in 4% DMSO was already present. Following 6 h incubation at 37° C., 5% CO2, the luciferase activity was determined by adding 15 μl of STEADY LITE PLUS substrate (PERKIN ELMER) to each well and readout performed on a VIEWLUX ULTRAHTS microplate imager (PERKIN ELMER). Dose response curves were generated from measurements performed in quadruplicates. Lowest effective concentrations (LEC) values, defined as the concentration that induces an effect which is at least two-fold above the standard deviation of the assay, were determined for each compound.

human TLR7 = target: T2, human TLR7 (Homo sapiens, UniProt Q9NYK1); assay: TLR7 NFκB-luc cellular reporter assay in transiently transfected HEK293 cells; format: cell-based; settings: lowest effective concentration; HEK293 cells transfected with wild type TLR7 and NFκB-luc reporter, 6 h incubation
T2 construct: expressed in transfected cells; host or cells: HEK293
T2 sequence (Q9NYK1 27-1049): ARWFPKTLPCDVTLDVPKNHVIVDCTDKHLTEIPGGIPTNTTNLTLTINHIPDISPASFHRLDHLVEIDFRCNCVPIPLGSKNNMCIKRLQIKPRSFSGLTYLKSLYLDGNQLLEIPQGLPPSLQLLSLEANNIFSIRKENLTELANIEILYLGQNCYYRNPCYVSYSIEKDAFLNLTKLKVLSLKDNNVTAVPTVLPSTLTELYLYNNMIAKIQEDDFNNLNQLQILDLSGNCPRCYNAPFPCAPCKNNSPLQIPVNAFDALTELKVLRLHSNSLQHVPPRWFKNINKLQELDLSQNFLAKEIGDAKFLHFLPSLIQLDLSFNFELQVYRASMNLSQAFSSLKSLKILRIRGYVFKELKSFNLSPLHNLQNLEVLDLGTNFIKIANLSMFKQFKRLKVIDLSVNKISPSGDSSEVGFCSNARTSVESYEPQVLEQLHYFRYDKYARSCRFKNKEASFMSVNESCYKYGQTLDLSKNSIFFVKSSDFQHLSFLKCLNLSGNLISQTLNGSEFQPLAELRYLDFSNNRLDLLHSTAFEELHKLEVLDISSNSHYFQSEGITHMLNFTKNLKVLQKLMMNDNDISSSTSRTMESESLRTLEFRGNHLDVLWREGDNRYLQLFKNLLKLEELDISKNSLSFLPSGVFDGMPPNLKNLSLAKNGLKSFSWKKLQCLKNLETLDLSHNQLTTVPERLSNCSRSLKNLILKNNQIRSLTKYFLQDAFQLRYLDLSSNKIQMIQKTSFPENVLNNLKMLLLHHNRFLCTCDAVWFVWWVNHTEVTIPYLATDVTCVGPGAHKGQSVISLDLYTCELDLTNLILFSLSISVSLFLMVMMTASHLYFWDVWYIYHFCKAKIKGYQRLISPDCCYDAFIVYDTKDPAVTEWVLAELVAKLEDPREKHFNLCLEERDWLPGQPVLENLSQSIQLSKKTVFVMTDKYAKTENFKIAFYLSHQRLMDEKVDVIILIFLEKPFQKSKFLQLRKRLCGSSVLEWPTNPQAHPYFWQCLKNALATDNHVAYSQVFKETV
Experimental: as §1, §2

hTLR8-wt (LEC) (human TLR8) [µM] | hTLR7-wt (LEC) (human TLR7) [µM] | Compound
0.04 | 6.24 | CCCC[C@H](CO)Nc1nc(N)nc2cc(F)cc(F)c12 [Compound 23, (R)-2-((2-amino-5,7-difluoroquinazolin-4-yl)amino)hexan-1-ol]
3.89 | > 100 | CCCC[C@H](CO)Nc1nc(N)nc2cc(C(=O)N(C)C)ccc12 [Compound 25, (R)-2-amino-4-((1-hydroxyhexan-2-yl)amino)-N,N-dimethylquinazoline-7-carboxamide]
0.7 | > 50 | CSCC[C@H](CO)Nc1nc(N)nc2cccc(F)c12 [Compound 20, (R)-2-((2-amino-5-fluoroquinazolin-4-yl)amino)-4-(methylthio)butan-1-ol]
0.35 | 3.36 | CCCC[C@H](CO)Nc1nc(N)nc2cc(C(F)(F)F)ccc12 [Compound 24, (R)-2-((2-amino-7-(trifluoromethyl)quinazolin-4-yl)amino)hexan-1-ol]
0.57 | > 100 | CCCC[C@H](CO)Nc1nc(N)nc2c(C)ccc(F)c12 [Compound 26, (R)-2-((2-amino-5-fluoro-8-methylquinazolin-4-yl)amino)hexan-1-ol]
1.81 | 2.17 | CCCC[C@H](CO)Nc1nc(N)nc2cccc(C(=O)NC)c12 [Compound 22, (R)-2-amino-4-((1-hydroxyhexan-2-yl)amino)-N-methylquinazoline-5-carboxamide]
0.41 | > 100 | CCCC[C@H](CO)Nc1nc(N)nc2c(F)c(F)ccc12 [Compound 19, (R)-2-((2-amino-7,8-difluoroquinazolin-4-yl)amino)hexan-1-ol]
0.09 | 1.71 | CC[C@H](C)[C@H](CO)Nc1nc(N)nc2cccc(F)c12 [Compound 21, (2R,3S)-2-((2-amino-5-fluoroquinazolin-4-yl)amino)-3-methylpentan-1-ol]

The next lines start with the molecule.

Compound | hTLR8-wt (LEC) (human TLR8) [µM] | hTLR7-wt (LEC) (human TLR7) [µM]
CCCC[C@H](CO)Nc1nc(N)nc2cccc(C(F)(F)F)c12 [Compound 3, (R)-2-((2-amino-5-(trifluoromethyl)quinazolin-4-yl)amino)hexan-1-ol] | 0.66 | > 100
CCCC[C@H](CO)Nc1nc(N)nc2cc(F)ccc12 [Compound 13, (R)-2-((2-amino-7-fluoroquinazolin-4-yl)amino)hexan-1-ol] | 0.04 | 29.4
CCC[C@H](CO)Nc1nc(N)nc2c(F)cccc12 [Compound 10, (R)-2-((2-amino-8-fluoroquinazolin-4-yl)amino)pentan-1-ol] | 3.27 | > 25
CCCC[C@H](CO)Nc1nc(N)nc2cccc(OC)c12 [Compound 12, (R)-2-((2-amino-5-methoxyquinazolin-4-yl)amino)hexan-1-ol] | 0.39 | 11.3
CCCC[C@H](COC(=O)C(C)C)Nc1nc(N)nc2c(C)cccc12 [Compound 11, (R)-2-((2-amino-8-methylquinazolin-4-yl)amino)hexyl isobutyrate] | 0.64 | > 25
CCCC[C@H](CO)Nc1nc(N)nc2cc(C)ccc12 [Compound 14, (R)-2-((2-amino-7-methylquinazolin-4-yl)amino)hexan-1-ol] | 0.11 | 11.5
CCCC[C@H](CO)Nc1nc(N)nc2c(OC)cccc12 [Compound 17, (R)-2-((2-amino-8-methoxyquinazolin-4-yl)amino)hexan-1-ol] | 3.74 | > 50
CCC[C@H](CO)Nc1nc(N)nc2c(C)cccc12 [Compound 6, (R)-2-((2-amino-8-methylquinazolin-4-yl)amino)pentan-1-ol] | 5.75 | > 25
CCCC[C@H](CO)Nc1nc(N)nc2cc(-c3nnco3)ccc12 [Compound 5, (R)-2-((2-amino-7-(1,3,4-oxadiazol-2-yl)quinazolin-4-yl)amino)hexan-1-ol] | 0.38 | > 25
CCCC[C@H](CO)Nc1nc(N)nc2cccc(C3CC3)c12 [Compound 1, (R)-2-((2-amino-5-cyclopropylquinazolin-4-yl)amino)hexan-1-ol] | 0.35 | > 100
CCCC[C@H](CO)Nc1nc(N)nc2cccc(F)c12 [Compound 2, (R)-2-((2-amino-5-fluoroquinazolin-4-yl)amino)hexan-1-ol] | 0.07 | 27.7
CCCC[C@H](CO)Nc1nc(N)nc2c(C)cccc12 [Compound 7, (R)-2-((2-amino-8-methylquinazolin-4-yl)amino)hexan-1-ol] | 0.46 | > 25
CCCC[C@H](CO)Nc1nc(N)nc2cc(C#N)ccc12 [Compound 4, (R)-2-amino-4-((1-hydroxyhexan-2-yl)amino)quinazoline-7-carbonitrile] | 0.14 | > 100
CCCC[C@H](CO)Nc1nc(N)nc2cccc(Cl)c12 [Compound 15, (R)-2-((2-amino-5-chloroquinazolin-4-yl)amino)hexan-1-ol] | 0.07 | > 100
CCCC[C@H](CO)Nc1nc(N)nc2c(Cl)cccc12 [Compound 8, (R)-2-((2-amino-8-chloroquinazolin-4-yl)amino)hexan-1-ol] | 2.72 | > 25
CCCC[C@H](CO)Nc1nc(N)nc2c(F)cccc12 [Compound 9, (R)-2-((2-amino-8-fluoroquinazolin-4-yl)amino)hexan-1-ol] | 0.11 | > 25
CCCC[C@H](CO)Nc1nc(N)nc2cccc(C)c12 [Compound 16, (R)-2-((2-amino-5-methylquinazolin-4-yl)amino)hexan-1-ol] | 0.19 | > 100
